From patent US10175256B2, “Compositions and methods utilizing lysophosphatidylcholine scaffolds” (National University Of Singapore, priority 2013, dated 2019)
“And” between values parts separate entries of the source, which are not always exact repeats. Identical values can stand only once.

Assays:
mouse Mfsd2a [1] = test: Cell-based free fatty acid transport/uptake in Mfsd2a expressing HEK293 cells (mass spectrometry, TLC; Table 1); conditions: MS, replicate columns; for Amount of each lipid species, mol percent in total phospholipid analysed: mock HEK293 cells incubated with 100 uM Arachidonic fatty acid/BSA complex overnight
Experimental: (§1) FIG. 12. […] Std: free [^14C]-DHA. b. TLC analysis of phospholipids and neutral lipids of HEK293 cells transfected with mouse Mfsd2a and mutants after overnight incubation with 100 μM [^14C]-oleate. TLC protocol used was described in Methods. PC: phosphatidylcholine, PE: phosphatidylethanolamine, TAG: triglyceride, CE: cholesteryl ester.
(§2) For tissue lipid analysis, brain, liver, and heart of female WT and KO mice with age of 7-8 weeks born to HET mothers, and brains from e18.5 embryos were collected and immediately frozen with liquid nitrogen until extraction. Lipid extraction was followed by chloroform/methanol method. For cell-based free fatty acid transport, lipids from HEK293 cells expressing mouse Mfsd2a and mock controls after overnight treatment with 100 μM docosahexaenoic, arachidonic, eicosapentaenoic, alpha-linolenic, linoleic, oleic, palmitic acids in BSA complex were extracted using HIP buffer (hexane:iso-propanol 3:2, per volume) and dried under N2 gas. Phospholipid species were measured by high performance liquid chromatography (HPLC) 1100 system (Agilent) coupled with an Triple Quadrupole/Ion Trap mass spectrometer (4000Qtrap, Applied Biosystem). Levels of individual phospholipid species were analyzed as described previously and quantified using spiked internal standards that includes PC-14:0/14:0, PE-14:0/14:0, PS-14:0/14:0 (Avanti Polar Lipids, Alabaster, Ala., USA), and dioctanoyl PI (Echelon Biosciences, Inc., Salt Lake City, Utah, USA).

mouse Mfsd2a [2] = biological target: T1, mouse Mfsd2a (Mus musculus, UniProt Q9DA75); test: as above; conditions: replicate columns; for Amount of each lipid species, mol percent in total phospholipid analysed: Mfsd2a expressing HEK293 cells incubated with 100 uM Arachidonic fatty acid/BSA complex overnight; for Amount of lipid species, mol percent in total phospholipid analysed / Amount of each lipid species normalized to internal standard, mol percent in total phospholipid analysed: Mfsd2a expressing HEK293 cells
T1 construct: expressed in transfected cells; host or cells: HEK293
T1 sequence (Q9DA75 1-534): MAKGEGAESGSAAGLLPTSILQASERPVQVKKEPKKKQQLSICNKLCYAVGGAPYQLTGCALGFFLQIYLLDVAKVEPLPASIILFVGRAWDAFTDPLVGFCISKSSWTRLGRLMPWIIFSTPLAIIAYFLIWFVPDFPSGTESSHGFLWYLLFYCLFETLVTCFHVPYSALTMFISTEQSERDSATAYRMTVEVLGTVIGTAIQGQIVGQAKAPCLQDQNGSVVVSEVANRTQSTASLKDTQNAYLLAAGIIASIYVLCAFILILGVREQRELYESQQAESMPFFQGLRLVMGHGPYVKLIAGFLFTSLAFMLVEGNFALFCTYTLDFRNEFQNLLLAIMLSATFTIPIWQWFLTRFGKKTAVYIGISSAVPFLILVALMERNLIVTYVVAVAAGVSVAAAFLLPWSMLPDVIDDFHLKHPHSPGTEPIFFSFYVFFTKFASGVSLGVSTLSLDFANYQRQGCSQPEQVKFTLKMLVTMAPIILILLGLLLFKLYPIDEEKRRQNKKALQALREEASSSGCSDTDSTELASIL
Experimental: as §1, §2

SMILES | Amount of each lipid species, mol percent in total phospholipid analysed (mouse Mfsd2a [1]) | Amount of each lipid species normalized to internal standard, mol percent in total phospholipid analysed (mouse Mfsd2a [1]; mock HEK293 cells, 100 uM Docosahexaenoic acid/BSA complex overnight) | Amount of each lipid species normalized to internal standard, mol percent in total phospholipid analysed (mouse Mfsd2a [1]; mock HEK293 cells, 100 uM Eicosapentaenoic acid/BSA complex overnight) | Amount of lipid species, mol percent in total phospholipid analysed (mouse Mfsd2a [1]; mock HEK293 cells, 100 uM Oleic fatty acid/BSA complex overnight) | Amount of each lipid species, mol percent in total phospholipid analysed (mouse Mfsd2a [2]; MS) | Amount of lipid species, mol percent in total phospholipid analysed (mouse Mfsd2a [2]; 100 uM Alpha-linolenic fatty acid/BSA complex overnight) | Amount of lipid species, mol percent in total phospholipid analysed (mouse Mfsd2a [2]; 100 uM Linoleic fatty acid/BSA complex overnight) | Amount of each lipid species normalized to internal standard, mol percent in total phospholipid analysed (mouse Mfsd2a [2]; 100 uM Docosahexaenoic acid/BSA complex overnight, MS) | Amount of each lipid species normalized to internal standard, mol percent in total phospholipid analysed (mouse Mfsd2a [2]; 100 uM Eicosapentaenoic acid/BSA complex overnight, MS) | Amount of lipid species, mol percent in total phospholipid analysed (mouse Mfsd2a [2]; 100 uM Oleic fatty acid/BSA complex overnight, MS)
CCCCCCCCCCCCCCCCCC(=O)OC[C@@H](O)COP(=O)(O)OCCN [LysoPE18:0] | 0.1798 mol percent and 0.2163 mol percent and 0.1654 mol percent | 0.2527 mol percent and 0.249 mol percent and 0.1539 mol percent | 0.2356 mol percent and 0.2515 mol percent and 0.1233 mol percent | 0.168 mol percent and 0.1023 mol percent and 0.04024 mol percent | 0.2569 mol percent and 0.2304 mol percent and 0.2461 mol percent and 0.117 mol percent | 0.3947 mol percent and 0.2832 mol percent and 0.2186 mol percent and 0.3429 mol percent | 0.1058 mol percent and 0.1018 mol percent and 0.1894 mol percent and 0.0869 mol percent | 0.1666 mol percent and 0.2308 mol percent (2×) and 0.1334 mol percent | 0.1092 mol percent and 0.307 mol percent and 0.1931 mol percent and 0.2135 mol percent | 0.09201 mol percent and 0.1193 mol percent and 0.148 mol percent and 0.05384 mol percent
CCCCCCCCCCCCCCCC/C=C\OC[C@@H](O)COP(=O)(O)OCCN [LysoPE18:0p] | 0.6519 mol percent and 0.416 mol percent and 0.215 mol percent | – | – | – | 0.5873 mol percent and 0.5865 mol percent and 0.323 mol percent and 0.5348 mol percent | – | – | – | – | –
CCCCCCCCCCCCCCCCCC/C=C\OC[C@@H](O)COP(=O)(O)OCCN [LysoPE20:0p] | 0.2922 mol percent and 0.183 mol percent and 0.1158 mol percent | – | – | – | 0.3303 mol percent and 0.2723 mol percent and 0.1846 mol percent and 0.2172 mol percent | – | – | – | – | –
